Like-named read-outs stand apart in the source and are kept apart here.
Legend:
Assay type in all cases: cell-based, human
[1] = system: EPO-induced JAK2 signal pathway; test: EPO-induced proliferation of UT-7 cells (JAK2 signal); settings: Homo sapiens, UT7; UT-7 cell proliferation, EPO 10 ng/mL, 72 hours; read-out: Inhibition activity IC50 on EPO-induced JAK2 signal pathway
Method in brief: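 […] was derived from inhibition rates across doses, scaled between wells lacking compound and cytokine (0) and EPO without compound (100), using alamarBlue fluorescence at Ex530/Em590. Compound (final 0-10000 nM) and 10 ng/mL EPO were given to UT-7 cells at 15000 per well for 72 h at 37° C.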

[2] = system: IL-10-induced JAK1/TYK2 signal pathway; test: IL-10-induced JAK1/TYK2 signal pathway STAT3-Luc reporter gene assay in U2OS cells; settings: Homo sapiens, U2OS cells, STAT3-Luc reporter, IL-10 10 ng/mL, read-out: Half inhibition dose (IC50) on IL-10-induced JAK1/TYK2 signal pathway
Source text: Cytokine IL-10 is one of the main members of IL-10 family. The receptor that cytokine IL-10 binds to consists of two kinds of subunits, i.e., IL-10R1 and IL-10R2, which respectively couple with JAK1 and TYK2. After the coupling of IL-10 with its receptor, interaction of phosphorylation occurs between JAK1 and TYK2 to form STAT3 docking site for phosphorylation of STAT3. The phosphorylated STAT3 enters the nucleus and drives the transcription and expression of downstream genes.
The reporter gene plasmid STAT3-Luc Reporter used in the present invention has luciferase expression sequence as the reporter gene, upstream of which is a promoter sequence containing multiple STAT3 binding sites. When phosphorylated STAT3 induced by IL-10 signal pathway binds to the promoter of STAT3-Luc Reporter plasmid, luciferase is transcribed and expressed. The excitation fluorescence catalyzed by Luciferase can be detected after the addition of […] substrate, whose intensity can quantitively reflect the activation level of the signal pathway.
Human osteosarcoma cell line U20S was commercially available from American Type Culture Collection (ATCC), and relevant culture conditions referred to those from ATCC. It was known that such cell line could express IL-10R2, JAK1, TYK2 and STAT3, therefore, by exogenous expression of IL-10R1 gene, a complete IL-10 signal pathway could be established. The human IL-10R1 subunit overexpression plasmid pCMV3-IL10RA-EGFP was constructed by Shanghai Genechem Co., Ltd., and capable of simultaneously expressing enhanced green fluorescent protein. In the subsequent detection and calculation, the signal of green fluorescent protein in the tested sample was used as a reference for transfection efficiency calibration of the luciferase reporter gene signal. Reporter plasmid STAT3-Luc Reporter was commercially available from Ji Man Biotech (Shanghai) Co., Ltd.
X-tremeGENE 9 DNA Transfection Reagent (Roche) was used for the transfection of plasmid DNA into cells, Cell Culture Lysis 5× reagent (Promega) and Luciferase Assay System (Promega) were used in cell lysate preparation and enzyme-substrate reaction for luciferase reporter gene detection. Green fluorescent protein signal and luciferase reporter gene signal were both detected by Tecan Spark™ 10M multimode microplate reader. The inhibition rate of the tested compound on the IL-10 signal pathway reporter gene signal and the half inhibition dose IC50 were both calculated using Microsoft Excel and GraphPad Prism 7.00 software.
U2OS cell line was inoculated in 96-well plate with flat bottom at 5000 cells per well, and cultured overnight at 37° C. and 5% CO2 followed by plasmid transfection. Following the instructions and using X-tremeGENE 9 DNA Transfection Reagent, pCMV3-IL10RA-EGFP and STAT3-Luc Reporter plasmids were co-transfected into the inoculated U2OS cells. After 24 hours of transfection, the tested compound was added respectively for a final concentration of 0, 0.1, 0.3, 1, 3, 10, 30, 100, or 300 nM. After 6 hours of culture at 37° C. and 5% CO2, IL-10 cytokine (Human IL-10 PEPROTECH 200-10-10UG) was added to each well for a final concentration of 10 ng/mL, the well in which neither compound nor cytokine was added was designated as 0% control well. The culture was continued for 24 hours before testing.
Cell lysate was prepared by using Cell Culture Lysis reagent and transferred to 96-well plate with half-well clear bottom. The green fluorescent protein signal value was detected at Ex485/Em520 using Tecan microplate reader, and recorded. After adding to each well the luciferase substrate from Luciferase Assay System, the signal value of luciferase-substrate reaction was immediately detected at 560 nm using Tecan microplate reader, and recorded.
Using Microsoft Excel software, the signal value of luciferase-substrate reaction of each well was calculated and calibrated based on the signal value of green fluorescent protein of each well. […]

[3] = system: IL-2-induced JAK1/JAK3 signal pathway; test: IL-2-induced proliferation of KHYG-1 cells (JAK1/JAK3 signal); settings: Homo sapiens; KHYG-1 cell proliferation, IL-2 10 ng/mL, 72 hours; read-out: Inhibition activity IC50 on IL-2-induced JAK1/JAK3 signal pathway
Method in brief: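 Controls were wells lacking both compound and cytokine (0%) and compound-free IL-2 wells (100%). C50 was calculated from inhibition rates across doses.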

SMILES | IC50 ([2]; U2OS) [nM] | IC50 [1] [nM] | IC50 [3] [nM] | IC50 [2] [nM]
CONC(=O)c1cnc(NC(=O)C2CC2)cc1Nc1ccc(C(F)(F)F)cc1N(C)S(C)(=O)=O [Example 10, 6-(cyclopropylcarboxamido)-N-methoxy-4-((2-(N-methylmethanesulfonamido)-4-(trifluoromethyl)phenyl)amino)nicotinamide] | – | > 10000 | > 10000 | 1.18
CONC(=O)c1cnc(NC(=O)C2CC2)cc1Nc1ccc(C2CC2)cc1N(C)S(C)(=O)=O [Example 12, 6-(cyclopropylcarboxamido)-4-((4-cyclopropyl-2-(N-methylmethanesulfonamido)phenyl)amino)-N-methoxy nicotinamide] | – | > 10000 | > 10000 | 0.961
CONC(=O)c1cnc(Nc2ccc(OC)cn2)cc1Nc1ccc(C2CC2)cc1N(C)S(C)(=O)=O [Example 16, 4-((4-cyclopropyl-2-(N-methylmethanesulfonamido)phenyl)amino)-N-methoxy-6-((5-methoxypyridin-2-yl)amino)nicotinamide] | 1.27 | > 10000 | > 10000 | –
C#Cc1ccc(Nc2cc(Nc3ccc(OC)cn3)ncc2C(=O)NOC)c(N(C)S(C)(=O)=O)c1 [Example 18, 4-((4-ethynyl-2-(N-methylmethanesulfonamido)phenyl)amino)-N-methoxy-6-((5-methoxypyridin-2-yl)amino)nicotinamide] | – | > 10000 | > 10000 | 0.784
CONC(=O)c1cnc(Nc2cccc(F)n2)cc1Nc1cccc(F)c1N(C)S(C)(=O)=O [Example 38, 4-((3-fluoro-2-(N-methylmethanesulfonamido)phenyl)amino)-6-((6-fluoropyridin-2-yl)amino)-N-methoxy nicotinamide] | 0.506 | > 10000 | > 10000 | –
CONC(=O)c1cnc(NC(=O)C2CC2)cc1Nc1cccc(-n2cccn2)c1OC [Example 41, 6-(cyclopropylcarboxamido)-N-methoxy-4-((2-methoxy-3-(1H-pyrazol-1-yl)phenyl)amino)nicotinamide] | – | > 10000 | > 10000 | 1.7
CONC(=O)c1cnc(Nc2cc(C)nc(C)n2)cc1Nc1ccccc1N(C)S(C)(=O)=O [Example 45] | 0.855 | > 10000 | > 10000 | –
[2H]C([2H])([2H])NC(=O)c1cnc(Nc2ccccn2)cc1Nc1cccc(-c2ncc(F)cn2)c1OC [Example 253, 4-((3-(5-fluoropyrimidin-2-yl)-2-methoxyphenyl)amino)-N-(methyl-d3)-6-(pyridin-2-ylamino)nicotinamide, reference compound] | 9.75 | – | – | –

Continued by falling IC50 ([2]; U2OS), values first:

IC50 ([2]; U2OS) [nM] | SMILES | IC50 [1] [nM] | IC50 [3] [nM] | IC50 [2] [nM]
2.33 | CONC(=O)c1cnc(NC(=O)C2CC2)cc1Nc1cccc(-c2ccn(C)n2)c1OC [Example 29, 6-(cyclopropylcarboxamido)-N-methoxy-4-((2-methoxy-3-(1-methyl-1H-pyrazol-3-yl)phenyl)amino)nicotinamide] | > 10000 | > 10000 | –
1.58 | CONC(=O)c1cnc(NC(=O)C2CC2)cc1Nc1ccccc1N(C)S(C)(=O)=O [Example 2, 6-(cyclopropylcarboxamido)-N-methoxy-4-((2-(N-methylmethanesulfonamido)phenyl)amino)nicotinamide] | > 10000 | > 10000 | –
1.51 | CONC(=O)c1cnc(Nc2cccc(F)n2)cc1Nc1cccc(-n2cccn2)c1OC [Example 42, 6-((6-fluoropyridin-2-yl)amino)-N-methoxy-4-((2-methoxy-3-(1H-pyrazol-1-yl)phenyl)amino)nicotinamide] | > 10000 | > 10000 | –
1.18 | CONC(=O)c1cnc(Nc2ccc(C#N)cn2)cc1Nc1ccccc1N(C)S(C)(=O)=O [Example 43, 6-((5-cyanopyridin-2-yl)amino)-N-methoxy-4-((2-(N-methylmethanesulfonamido)phenyl)amino)nicotinamide] | > 10000 | > 10000 | –
1.1 | CONC(=O)c1cnc(Nc2ccc(F)cn2)cc1Nc1ccc(C2CC2)cc1N(C)S(C)(=O)=O [Example 13, 4-((4-cyclopropyl-2-(N-methylmethanesulfonamido)phenyl)amino)-6-((5-fluoropyridin-2-yl)amino)-N-methoxy nicotinamide] | > 10000 | > 10000 | –
1.06 | C#Cc1ccc(Nc2cc(Nc3cccc(F)n3)ncc2C(=O)NOC)c(N(C)S(C)(=O)=O)c1 [Example 19] | > 10000 | > 10000 | –
1.04 | CONC(=O)c1cnc(Nc2cc(C)c(F)cn2)cc1Nc1ccccc1N(C)S(C)(=O)=O [Example 44, 6-((5-fluoro-4-methylpyridin-2-yl)amino)-N-methoxy-4-((2-(N-methylmethanesulfonamido)phenyl)amino)nicotinamide] | > 10000 | > 10000 | –
0.955 | CCONC(=O)c1cnc(Nc2ccc(OC)cn2)cc1Nc1ccc(C2CC2)cc1N(C)S(C)(=O)=O [Example 20, 4-((4-cyclopropyl-2-(N-methylmethanesulfonamido)phenyl)amino)-N-ethoxy-6-((5-methoxypyridin-2-yl)amino)nicotinamide] | > 10000 | > 10000 | –
0.874 | CONC(=O)c1cnc(Nc2cccc(F)n2)cc1Nc1ccc(C2CC2)cc1N(C)S(C)(=O)=O [Example 14, 4-((4-cyclopropyl-2-(N-methylmethanesulfonamido)phenyl)amino)-6-((6-fluoropyridin-2-yl)amino)-N-methoxy nicotinamide] | > 10000 | > 10000 | –
0.705 | CONC(=O)c1cnc(Nc2ccc(F)cn2)cc1Nc1ccccc1N(C)S(C)(=O)=O [Example 4, 6-((5-fluoropyridin-2-yl)amino)-N-methoxy-4-((2-(N-methylmethanesulfonamido)phenyl)amino)nicotinamide] | > 10000 | > 10000 | –
0.686 | CONC(=O)c1cnc(Nc2cccc(F)n2)cc1Nc1cccnc1N(C)S(C)(=O)=O [Example 36, 6-((6-fluoropyridin-2-yl)amino)-N-methoxy-4-((2-(N-methylmethanesulfonamido)pyridin-3-yl)amino)nicotinamide] | > 10000 | > 10000 | –
0.57 | CCONC(=O)c1cnc(Nc2cccc(F)n2)cc1Nc1ccc(C2CC2)cc1N(C)S(C)(=O)=O [Example 22, 4-((4-cyclopropyl-2-(N-methylmethanesulfonamido)phenyl)amino)-N-ethoxy-6-((6-fluoropyridin-2-yl)amino)nicotinamide] | > 10000 | > 10000 | –

Source: patent US20240101548A1, “HYDROXAMATE COMPOUND, PREPARATION METHOD THEREFOR AND APPLICATION THEREOF” (SHENZHEN CHIPSCREEN BIOSCIENCES CO., LTD., priority 2020, published 2024)
